This assay deals with L1210 leukemia ip in BDF1 mice, survival T/C. Description: NCI In Vivo Anticancer Drug Screen. Data for tumor model L1210 Leukemia (intraperitoneal) in B6D2F1 (BDF1) mice. To be noted: endpoint: mean survival time, higher = longer survival. In outline:
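Antitumor effect is assessed in tumor-bearing animals. Survival in the compound arm is compared with a vehicle-dosed control arm and expressed as their quotient.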

[1] abbreviates: dose: 25.0 mg/kg/injection, schedule: Q01DX009 (ip), vehicle: saline with Tween-80.
[2] abbreviates: dose: 50.0 mg/kg/injection, schedule: Q01DX009 (ip), vehicle: saline with Tween-80.
[3] abbreviates: dose: 100.0 mg/kg/injection, schedule: Q01DX009 (ip), vehicle: saline with Tween-80.
Setting [4] is: dose: 100.0 mg/kg/injection, schedule: Q01DX009 (ip), vehicle: Klucel (hydroxypropylcellulose) (HPC).
The mark [5] stands for this setting: dose: 200.0 mg/kg/injection, schedule: Q01DX009 (ip), vehicle: Klucel (hydroxypropylcellulose) (HPC).
[6] abbreviates: dose: 12.5 mg/kg/injection, schedule: Q01DX009 (ip), vehicle: saline with Tween-80.
[7] abbreviates: dose: 400.0 mg/kg/injection, schedule: Q04DX002 (ip), vehicle: saline with Tween-80.
[8] abbreviates: dose: 200.0 mg/kg/injection, schedule: Q01DX009 (ip), vehicle: saline with Tween-80.
Setting [9] is: dose: 100.0 mg/kg/injection, schedule: Q01DX001 (ip), vehicle: saline.
[10] abbreviates: dose: 200.0 mg/kg/injection, schedule: Q01DX001 (ip), vehicle: saline.
Setting [11] is: dose: 100.0 mg/kg/injection, schedule: Q01DX009 (ip), vehicle: saline.
[12] abbreviates: dose: 100.0 mg/kg/injection, schedule: Q04DX003 (ip), vehicle: saline.
Where [13] appears, read: dose: 200.0 mg/kg/injection, schedule: Q01DX009 (ip), vehicle: saline.
Setting [14] is: dose: 200.0 mg/kg/injection, schedule: Q04DX003 (ip), vehicle: saline.
The mark [15] stands for this setting: dose: 400.0 mg/kg/injection, schedule: Q04DX003 (ip), vehicle: saline.

Molecules are shown by their SMILES. Toxic doses and inconclusive results are not listed.

Our source for the T/C values is PubChem BioAssay AID248 (DTP/NCI, 2004).

In the case of `COc1ccccc1OC(=O)Nc1ccc(C)c([N+](=O)[O-])c1`, the T/C is, setting by setting: under setting [1], 95 % of control; under setting [2], 118 % of control; under setting [3], 92 % of control.
On to `CCc1ccccc1NC(=S)NC1CCCCC1`, for which the T/C under setting [4] is 92 % of control and the T/C under setting [5] was 101 % of control.
Consider `O=C(C[n+]1ccccc1/C=N/O)c1ccccc1`, for which the T/C was 101 % of control under setting [6]; 99 % of control under setting [1]; 101 % of control under setting [2]; 97 % of control (dose: 75.0 mg/kg/injection, schedule: Q01DX001 (ip), vehicle: other).
Regarding `COc1cc(/C=N/[N+](C)(C)C)ccc1O`, the T/C was 94 % of control under setting [6]; 96 % of control (dose: 12.5 mg/kg/injection, schedule: Q04DX003 (ip), vehicle: saline with Tween-80); 96 % of control under setting [1]; 93 % of control (dose: 25.0 mg/kg/injection, schedule: Q04DX003 (ip), vehicle: saline with Tween-80); 97 % of control (dose: 50.0 mg/kg/injection, schedule: Q04DX003 (ip), vehicle: saline with Tween-80).
Regarding `CCN(CC)N=Nc1ccc(S(=O)(=O)N(C)C)cc1`, the T/C is 104 % of control (dose: 100.0 mg/kg/injection, schedule: Q04DX002 (ip), vehicle: saline with Tween-80); 97 % of control (dose: 200.0 mg/kg/injection, schedule: Q04DX002 (ip), vehicle: saline with Tween-80); 115 % of control under setting [7].
Regarding `CSC(=N)c1cccc(OCCCOc2ccccc2)c1`, the T/C is 94 % of control under setting [1], 90 % of control under setting [2], 90 % of control under setting [3] and 88 % of control under setting [8].
With `CC(=O)Nc1cccc(C(C)=O)c1[N+](=O)[O-]`, the T/C is 100 % of control (dose: 100.0 mg/kg/injection, schedule: Q04DX003 (ip), vehicle: saline with Tween-80); 94 % of control (dose: 200.0 mg/kg/injection, schedule: Q04DX003 (ip), vehicle: saline with Tween-80); 100 % of control (dose: 400.0 mg/kg/injection, schedule: Q04DX003 (ip), vehicle: saline with Tween-80).
For the molecule `CCCCCCCCNC1=C(OC)C(=O)C(NCCCCCCCC)=C(OC)C1=O`, the T/C reads like this: under setting [4], 98 % of control; (dose: 100.0 mg/kg/injection, schedule: Q04DX003 (ip), vehicle: Klucel (hydroxypropylcellulose) (HPC)) 96 % of control; under setting [5], 104 % of control; (dose: 200.0 mg/kg/injection, schedule: Q04DX003 (ip), vehicle: Klucel (hydroxypropylcellulose) (HPC)) 91 % of control; (dose: 400.0 mg/kg/injection, schedule: Q01DX009 (ip), vehicle: Klucel (hydroxypropylcellulose) (HPC)) 98 % of control; (dose: 400.0 mg/kg/injection, schedule: Q04DX003 (ip), vehicle: Klucel (hydroxypropylcellulose) (HPC)) 88 % of control.
Turning to `CCCCCCCNC(=O)Nc1cc([N+](=O)[O-])ccc1C`, the T/C reads like this: under setting [3], 98 % of control; under setting [8], 98 % of control; (dose: 400.0 mg/kg/injection, schedule: Q01DX009 (ip), vehicle: saline with Tween-80) 94 % of control.
Take `CCN(CCO)CCNc1ccc(C)c2sc3ccccc3c(=O)c12`: the T/C reads like this: (dose: 26.0 mg/kg/injection, schedule: Q01DX009 (ip), vehicle: saline) 110 % of control; (dose: 40.0 mg/kg/injection, schedule: Q01DX009 (ip), vehicle: saline) 122 % of control; (dose: 50.0 mg/kg/injection, schedule: Q01DX001 (ip), vehicle: saline) 105 % of control; (dose: 60.0 mg/kg/injection, schedule: Q01DX009 (ip), vehicle: saline) 124 % of control; (dose: 78.0 mg/kg/injection, schedule: Q04DX003 (ip), vehicle: saline) 111 % of control; under setting [9], 116 % of control. Also, the T/C (dose: 114.0 mg/kg/injection, schedule: Q01DX001 (ip), vehicle: saline) was 104 % of control; the T/C (dose: 114.0 mg/kg/injection, schedule: Q04DX003 (ip), vehicle: saline) is 120 % of control; the T/C (dose: 135.0 mg/kg/injection, schedule: Q01DX009 (ip), vehicle: saline) is 95 % of control; the T/C (dose: 174.0 mg/kg/injection, schedule: Q01DX001 (ip), vehicle: saline) is 110 % of control; the T/C (dose: 174.0 mg/kg/injection, schedule: Q04DX003 (ip), vehicle: saline) is 172 % of control; the T/C under setting [10] is 121 % of control. Also, the T/C (dose: 260.0 mg/kg/injection, schedule: Q01DX001 (ip), vehicle: saline) was 165 % of control.
In the case of `Cc1cc(=O)[nH]c2ccc(Cc3ccc4[nH]c(=O)cc(C)c4c3)cc12`, the T/C under setting [9] was 102 % of control; the T/C under setting [10] was 102 % of control; the T/C (dose: 400.0 mg/kg/injection, schedule: Q01DX001 (ip), vehicle: saline) was 107 % of control.
As for `CC(=O)OCC(OC(C)=O)C(OC(C)=O)C(COC(C)=O)OC(C)=O` (stereo not drawn), the T/C runs as follows: (dose: 25.6 mg/kg/injection, schedule: Q04DX002 (ip), vehicle: saline with Tween-80) 108 % of control; (dose: 64.0 mg/kg/injection, schedule: Q04DX002 (ip), vehicle: saline with Tween-80) 104 % of control; (dose: 160.0 mg/kg/injection, schedule: Q04DX002 (ip), vehicle: saline with Tween-80) 93 % of control; under setting [7], 93 % of control.
For the molecule `CC1(C#N)CCC2c3ccccc3CCC2C1=O` (stereo not drawn), the T/C is, setting by setting: under setting [11], 95 % of control; under setting [12], 100 % of control; under setting [13], 96 % of control; under setting [14], 98 % of control; (dose: 400.0 mg/kg/injection, schedule: Q01DX009 (ip), vehicle: saline) 106 % of control; under setting [15], 97 % of control.
Consider `COC(=O)Nc1c(C)cc(C)cc1C`, for which the T/C runs as follows: under setting [12], 94 % of control; under setting [14], 94 % of control; under setting [15], 98 % of control.
Take `O=[N+]([O-])c1[nH]c(Cl)nc1Cl`: the T/C reads like this: (dose: 25.0 mg/kg/injection, schedule: Q01DX001 (ip), vehicle: saline with Tween-80) 97 % of control; (dose: 50.0 mg/kg/injection, schedule: Q01DX001 (ip), vehicle: saline with Tween-80) 103 % of control.
`COc1ccc(C(C)(C)CC(=O)O)cc1OC`: the T/C is 92 % of control (dose: 100.0 mg/kg/injection, schedule: Q01DX001 (ip), vehicle: saline with Tween-80); 92 % of control (dose: 200.0 mg/kg/injection, schedule: Q01DX001 (ip), vehicle: saline with Tween-80); 95 % of control (dose: 400.0 mg/kg/injection, schedule: Q01DX001 (ip), vehicle: saline with Tween-80).
For `CC(c1ccccc1)n1cncc1C(=O)N(C)C` (stereo not drawn), the T/C reads like this: (dose: 50.0 mg/kg/injection, schedule: Q01DX009 (ip), vehicle: saline) 96 % of control; under setting [11], 101 % of control; under setting [12], 97 % of control; under setting [13], 97 % of control; under setting [14], 93 % of control.
In the case of `CCCCCNCCC[P+](c1ccccc1)(c1ccccc1)c1ccccc1`, the T/C reads like this: (dose: 25.0 mg/kg/injection, schedule: Q04DX002 (ip), vehicle: saline) 98 % of control; (dose: 50.0 mg/kg/injection, schedule: Q04DX002 (ip), vehicle: saline) 105 % of control; (dose: 100.0 mg/kg/injection, schedule: Q04DX002 (ip), vehicle: saline) 119 % of control.
`Cc1c(C)c(CO)c(C)c(C)c1CO`: the T/C is, setting by setting: (dose: 12.5 mg/kg/injection, schedule: Q04DX003 (ip), vehicle: Klucel (hydroxypropylcellulose) (HPC)) 94 % of control; (dose: 25.0 mg/kg/injection, schedule: Q04DX003 (ip), vehicle: Klucel (hydroxypropylcellulose) (HPC)) 92 % of control; (dose: 50.0 mg/kg/injection, schedule: Q04DX003 (ip), vehicle: Klucel (hydroxypropylcellulose) (HPC)) 97 % of control.
